Measured values published in patent publication US20170253601A1, “Substituted Pyrrolidine Compounds” (EPIZYME, INC., priority 2014, published 2017).
pIC50: −log10 of the molar value.

Molecular target: T1, SMYD2 (Homo sapiens, UniProt Q9NRG4)
T1 construct: Full length SMYD2 (NP 064582.2) was cloned; His6 (N, cleaved yes); FLAG (N); made in house; host or cells: Sf9 insect cells
Test: SMYD2 Biochemical Assay (3H-SAM, biotinylated peptide substrate, Flashplate)
Conditions: IC50 values are an average of n = 1 to n = 50; read-out: SMYD2 Biochem IC50 (μM)*
Text: S-adenosylmethionine (SAM), S-adenosylhomocysteine (SAH), bicine, Tween20, dimethylsulfoxide (DMSO), bovine skin gelatin (BSG), and Tris(2-carboxyethyl)phosphine hydrochloride (TCEP) were purchased from Sigma-Aldrich at the highest level of purity possible. ^3H-SAM was purchase from American Radiolabeled Chemicals with a specific activity of 80 Ci/mmol. 384-well streptavidin Flashplates were purchased from PerkinElmer.
Peptide was synthesized with a N-terminal linker-affinity tag motif and a C-terminal amide cap by 21st Century Biochemicals. The peptide was high-performance liquid chromatography (HPLC) purified to greater than 95% purity and confirmed by liquid chromatography mass spectrometry (LC-MS). The sequence was […](K-Biot)-amide. (SEQ ID No: 3)
Full length SMYD2 (NP 064582.2) was cloned into a pFastbac-Htb-lic vector with an N-terminal His6 tag and FLAG tag, preceded by a TEV protease cleavage site. The protein was expressed in Sf9 insect cells. Cells were resuspended in lysis buffer (25 mM HEPES-NaOH, pH 7.5, 200 mM NaCl, 5% glycerol, and 5 mM β-ME) and lysed by sonication. The protein was purified by Ni-NTA (Qiagen), followed by TEV cleavage to remove the His6 tag, subtractive Ni-NTA (Qiagen), and gel filtration chromatography using an […] (GE Healthcare). Purified protein was stored in 20 mM Tris-HCl, pH 8.0, 100 mM NaCl, and 1 mM TCEP.
The assays were all performed in a buffer consisting of 20 mM Bicine (pH=7.6), 1 mM TCEP, 0.005% Bovine Skin Gelatin, and 0.002% Tween20, prepared on the day of use. Compounds in 100% DMSO (1 ul) were spotted into a polypropylene 384-well V-bottom plates (Greiner) using a Platemate Plus outfitted with a 384-channel head (Thermo Scientific). DMSO (1 ul) was added to Columns 11, 12, 23, 24, rows A-H for the maximum signal control and 1 ul of SAH, a known product and inhibitor of SMYD2, was added to columns 11, 12, 23, 24, rows I-P for the minimum signal control. A cocktail (40 ul) containing the SMYD2 enzyme was added by Multidrop Combi (Thermo-Fisher). The compounds were allowed to incubate with SMYD2 for 30 min at room temperature, then a cocktail (10 ul) containing ^3H-SAM and peptide was added to initiate the reaction (final volume=51 ul). The final concentrations of the components were as follows: SMYD2 was 1.5 nM, ^3H-SAM was 10 nM, and peptide was 60 nM, SAH in the minimum signal control wells was 1000 uM, and the DMSO concentration was 2%. The assays were stopped by the addition of non-radioactive SAM (10 ul) to a final concentration of 600 uM, which dilutes the ^3H-SAM to a level where its incorporation into the peptide substrate is no longer detectable. 50 ul of the reaction in the 384-well polypropylene plate was then transferred to a 384-well Flashplate and the biotinylated peptides were allowed to bind to the streptavidin surface for at least 1 hour before being washed three times with 0.1% Tween20 in a Biotek ELx405 plate washer. The plates were then read in a PerkinElmer TopCount plate reader to measure the quantity of ^3H-labeled peptide bound to the Flashplate surface, measured as disintegrations per minute (dpm) or alternatively, referred to as counts per minute (cpm).
Where dpm=disintegrations per minute, cmpd=signal in assay well, and min and max are the respective minimum and maximum signal controls.
Where top and bottom are the normally allowed to float, but may be fixed at 100 or 0 respectively in a 3-parameter fit. The Hill Coefficient normally allowed to float but may also be fixed at 1 in a 3-parameter fit. I is the compound concentration.
SMYD2 biochemical assay data for representative Compounds of the Disclosure are presented in Tables 1-3 in the column titled “SMYD2 Biochem IC50 (μM).”

T1 sequence (Q9NRG4 whole entry): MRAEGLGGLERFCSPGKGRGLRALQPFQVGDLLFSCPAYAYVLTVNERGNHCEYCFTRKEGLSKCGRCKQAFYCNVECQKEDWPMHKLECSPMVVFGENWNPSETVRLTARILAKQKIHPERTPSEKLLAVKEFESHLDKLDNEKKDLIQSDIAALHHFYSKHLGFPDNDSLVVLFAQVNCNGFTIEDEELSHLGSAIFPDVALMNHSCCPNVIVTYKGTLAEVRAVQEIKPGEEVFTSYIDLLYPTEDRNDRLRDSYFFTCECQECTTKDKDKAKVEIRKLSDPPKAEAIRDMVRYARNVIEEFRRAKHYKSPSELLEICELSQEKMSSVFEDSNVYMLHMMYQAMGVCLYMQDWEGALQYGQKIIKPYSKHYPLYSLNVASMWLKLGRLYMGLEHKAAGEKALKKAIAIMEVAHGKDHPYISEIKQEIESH

IC50	Structure (SMILES)
> 50 µM	C[C@@H]1CN(c2cccc(Cl)c2)C[C@H]1NC(=O)c1cc(C2CC2)on1 (racemic) [compound 297, (±)-trans-N-[1-(3-chloro-phenyl)-4-methyl-pyrrolidin-3-yl]-5-cyclopropyl-1,2-oxazole-3-carboxamide]
> 50 µM	CN1C[C@H](NC(=O)c2cc(C3CC3)on2)[C@H](C(C)(C)C)C1 (racemic) [compound 257, (±)-cis-N-[4-tert-butyl-1-methylpyrrolidin-3-yl]-5-cyclopropyl-1,2-oxazole-3-carboxamide]
> 50 µM	C[C@@H]1CN(CC2CCN(C)CC2)C[C@H]1NC(=O)c1cc(C2CC2)on1 (racemic) [compound 158, (±)-trans-5-cyclopropyl-N-[4-methyl-1-[(1-methylpiperidin-4-yl)methyl]pyrrolidin-3-yl]-1,2-oxazole-3-carboxamide]
> 50 µM	C[C@@H]1CN(c2ccc(Cl)cc2)C[C@H]1NC(=O)c1cc(C2CC2)on1 (racemic) [compound 298, (±)-trans-N-[1-(4-chloro-phenyl)-4-methyl-pyrrolidin-3-yl]-5-cyclopropyl-1,2-oxazole-3-carboxamide]
43.2 µM	O=C(N[C@@H]1CN(C2CC2)C[C@H]1CO)c1cc(C2CC2)on1 [compound 168, 5-cyclopropyl-N-[(3S,4R)-1-cyclopropyl-4-(hydroxymethyl)pyrrolidin-3-yl]-1,2-oxazole-3-carboxamide]
> 50 µM	C[C@H]1CN(c2ccccc2Cl)C[C@H]1NC(=O)c1cc(C2CC2)on1 (racemic) [compound 301, (±)-cis-N-[1-(2-chloro-phenyl)-4-methyl-pyrrolidin-3-yl]-5-cyclo-propyl-1,2-oxazole-3-carboxamide]
> 50 µM	C[C@H]1CN(CC(=O)N2CCNCC2)C[C@H]1NC(=O)c1cc(C2CC2)on1 (racemic) [compound 304, (±)-cis-5-cyclopropyl-N-{4-methyl-1-[2-oxo-2-(piperazin-1-yl)ethyl]pyrrolidin-3-yl}-1,2-oxazole-3-carboxamide]
> 50 µM	C[C@@H]1CN(Cc2ccccc2)C[C@H]1NC(=O)c1cc(C2CC2)on1 (racemic) [compound 117, (±)-trans-N-(1-benzyl-4-methylpyrrolidin-3-yl)-5-cyclopropyl-1,2-oxazole-3-carboxamide]
> 50 µM	C[C@H]1CN(Cc2ccc(-c3cc(Cl)ccc3Cl)o2)C[C@H]1NC(=O)c1cc(C2CC2)on1 (racemic) [compound 198, (±)-cis-5-cyclopropyl-N-(1-{[5-(2,5-dichloro-phenyl)furan-2-yl]methyl}-4-methyl-pyrrolidin-3-yl)-1,2-oxazole-3-carboxamide]
2.27 µM	COc1cccc(CN2C[C@H](C)[C@H](NC(=O)c3cc(C4CC4)on3)C2)c1OC (racemic) [compound 233, (±)-cis-5-cyclopropyl-N-[1-[(2,3-dimethoxy-phenyl)methyl]-4-methylpyrrolidin-3-yl]-1,2-oxazole-3-carboxamide]
42.5 µM	C[C@@H]1CN(Cc2c[nH]cn2)C[C@H]1NC(=O)c1cc(C2CC2)on1 (racemic) [compound 180, (±)-trans-5-cyclopropyl-N-[1-(1H-imidazol-4-ylmethyl)-4-methylpyrrolidin-3-yl]-1,2-oxazole-3-carboxamide]
5.84 µM	CC(C)N1C[C@H](C)[C@H](NC(=O)c2cc(CC(F)F)on2)C1 (racemic) [compound 345, (±)-cis-5-(2,2-difluoro-ethyl)-N-[4-methyl-1-(propan-2-yl)pyrrolidin-3-yl]-1,2-oxazole-3-carboxamide]
6.8 µM	CC(C)N1C[C@@H](NC(=O)c2cc(C3CC3)on2)[C@](C)(O)C1 [compound 245, 5-cyclopropyl-N-[(3R,4R)-4-hydroxy-4-methyl-1-(propan-2-yl)pyrrolidin-3-yl]-1,2-oxazole-3-carboxamide]
> 50 µM	CC(C)c1cc(C(=O)N[C@@H]2C[C@@H](CNC(=O)c3ccccc3)N(C3CC3)C2)no1 (stereo in doubt) [compound 242, (±)-trans-N-[1-cyclo-propyl-5-[(phenyl-formamido)methyl]pyrrolidin-3-yl]-5-(propan-2-yl)-1,2-oxazole-3-carboxamide]
> 50 µM	CC(C)c1cc(C(=O)N[C@H]2C[C@H](CNC(=O)C3CCCCC3)N(C3CC3)C2)no1 (stereo in doubt) [compound 190, (±)-trans-N-[5-[(cyclohexyl-formamido)methyl]-1-cyclopropylpyrrolidin-3-yl]-5-(propan-2-yl)-1,2-oxazole-3-carboxamide]
> 50 µM	C[C@@H]1CN(CCF)C[C@H]1NC(=O)c1cc(C2CC2)on1 (racemic) [compound 253, (±)-trans-5-cyclopropyl-N-[1-(2-fluoroethyl)-4-methylpyrrolidin-3-yl]-1,2-oxazole-3-carboxamide]
> 50 µM	CC(C)N1C[C@H](C)[C@H](NC(=O)c2cc(C3CN(C)C3)on2)C1 (racemic) [compound 343, (±)-cis-N-[4-methyl-1-(propan-2-yl)pyrrolidin-3-yl]-5-(1-methylazetidin-3-yl)-1,2-oxazole-3-carboxamide]
> 50 µM	C[C@H]1CN(CC(=O)N2CCCC2)C[C@H]1NC(=O)c1cc(C2CC2)on1 (racemic) [compound 264, (±)-cis-5-cyclopropyl-N-[4-methyl-1-[2-oxo-2-(pyrrolidin-1-yl)ethyl]pyrrolidin-3-yl]-1,2-oxazole-3-carboxamide]

Same assay, conditions: Table 1; average of n = 1 to n = 50; read-out: SMYD2 Biochem IC50

pIC50	Structure (SMILES)
4.49	O=C(NC1CCN(C2CC2)C1)c1cc(C2CC2)on1 (stereo not shown) [compound 36, 5-cyclopropyl-N-(1-cyclopropylpyrrolidin-3-yl)isoxazole-3-carboxamide]

Same assay, conditions: Table 2; average of n = 1 to n = 50; read-out: SMYD2 Biochem IC50

pIC50	Structure (SMILES)
< 4.30	C[C@@H]1CN(S(C)(=O)=O)C[C@H]1NC(=O)c1cc(C2CC2)on1 (racemic) [compound 90, (±)-trans-5-cyclopropyl-N-(4-methyl-1-(methylsulfonyl)pyrrolidin-3-yl)isoxazole-3-carboxamide]
< 4.30	C[C@H]1CN(C(=O)CN)C[C@@H]1NC(=O)c1cc(C2CC2)on1 (racemic) [compound 92, (±)-trans-5-cyclopropyl-N-(1-glycyl-4-methylpyrrolidin-3-yl)isoxazole-3-carboxamide]
< 4.30	C[C@H]1CN(C(=O)CC2CCNCC2)C[C@@H]1NC(=O)c1cc(C2CC2)on1 (racemic) [compound 95, (±)-trans-5-cyclopropyl-N-(4-methyl-1-(2-(piperidin-4-yl)acetyl)pyrrolidin-3-yl)isoxazole-3-carboxamide]
< 4.30	C[C@@H]1CN(C(=O)C2CCNCC2)C[C@H]1NC(=O)c1cc(C2CC2)on1 (racemic) [compound 94, (±)-trans-5-cyclopropyl-N-(4-methyl-1-(piperidine-4-carbonyl)pyrrolidin-3-yl)isoxazole-3-carboxamide]
< 4.30	C[C@H]1CN(S(C)(=O)=O)C[C@H]1NC(=O)c1cc(C2CC2)on1 (racemic) [compound 66, (±)-cis-5-cyclopropyl-N-(4-methyl-1-(methyl-sulfonyl)pyrrolidin-3-yl)isoxazole-3-carboxamide]
< 4.30	C[C@@H]1CN(Cc2ccccn2)C[C@H]1NC(=O)c1cc(C2CC2)on1 (racemic) [compound 87, (±)-trans-5-cyclopropyl-N-(4-methyl-1-(pyridin-2-ylmethyl)pyrrolidin-3-yl)isoxazole-3-carboxamide]
